According to the NIST ThermoML archive (doi:10.1016/j.jct.2007.04.005):

Assay: xn = mol fraction of the nth substance listed
Details: 318.15 K, Liquid

CCCCCCCCC [nonane] + C1CCCCC1
Details | mass density [kg/m3]
100 kPa, x2 = 0 | 698.2
100 kPa, x2 = 0.09303 | 701
100 kPa, x2 = 0.2009 | 704.8
100 kPa, x2 = 0.3051 | 708.8
100 kPa, x2 = 0.417 | 713.5
100 kPa, x2 = 0.512 | 718
100 kPa, x2 = 0.5996 | 722.8
100 kPa, x2 = 0.7052 | 729.3
100 kPa, x2 = 0.7993 | 736.2
100 kPa, x2 = 0.9039 | 744.9
101 kPa, x2 = 0 | 698.48
101 kPa, x2 = 0.1022 | 701.67
101 kPa, x2 = 0.1548 | 703.43
101 kPa, x2 = 0.2009 | 705.04
101 kPa, x2 = 0.2591 | 707.2
101 kPa, x2 = 0.3306 | 710.05
101 kPa, x2 = 0.4003 | 713.04
101 kPa, x2 = 0.4596 | 715.79
101 kPa, x2 = 0.5321 | 719.42
101 kPa, x2 = 0.612 | 723.86
101 kPa, x2 = 0.6649 | 727.05
101 kPa, x2 = 0.7224 | 730.84
101 kPa, x2 = 0.8047 | 736.83
101 kPa, x2 = 0.8686 | 742.07
101 kPa, x2 = 0.9405 | 748.72
2130 kPa, x2 = 0 | 699.9
2130 kPa, x2 = 0.09303 | 702.7
2130 kPa, x2 = 0.2009 | 706.5
2130 kPa, x2 = 0.3051 | 710.6
2130 kPa, x2 = 0.417 | 715.2
2130 kPa, x2 = 0.512 | 719.8
2130 kPa, x2 = 0.5996 | 724.6
2130 kPa, x2 = 0.7052 | 731.1
2130 kPa, x2 = 0.7993 | 738
2130 kPa, x2 = 0.9039 | 746.7
4150 kPa, x2 = 0 | 701.8
4150 kPa, x2 = 0.09303 | 704.7
4150 kPa, x2 = 0.2009 | 708.4
4150 kPa, x2 = 0.3051 | 712.5
4150 kPa, x2 = 0.417 | 717.2
4150 kPa, x2 = 0.512 | 721.7
4150 kPa, x2 = 0.5996 | 726.6
4150 kPa, x2 = 0.7052 | 733.1
4150 kPa, x2 = 0.7993 | 740
4150 kPa, x2 = 0.9039 | 748.7
6180 kPa, x2 = 0 | 703.6
6180 kPa, x2 = 0.09303 | 706.4
6180 kPa, x2 = 0.2009 | 710.2
6180 kPa, x2 = 0.3051 | 714.3
6180 kPa, x2 = 0.417 | 719
6180 kPa, x2 = 0.512 | 723.6
6180 kPa, x2 = 0.5996 | 728.4
6180 kPa, x2 = 0.7052 | 734.9
6180 kPa, x2 = 0.7993 | 741.8
6180 kPa, x2 = 0.9039 | 750.6
8210 kPa, x2 = 0 | 705.3
8210 kPa, x2 = 0.09303 | 708.2
8210 kPa, x2 = 0.2009 | 712
8210 kPa, x2 = 0.3051 | 716.1
8210 kPa, x2 = 0.417 | 720.7
8210 kPa, x2 = 0.512 | 725.3
8210 kPa, x2 = 0.5996 | 730.2
8210 kPa, x2 = 0.7052 | 736.7
8210 kPa, x2 = 0.7993 | 743.6
8210 kPa, x2 = 0.9039 | 752.4
10230 kPa, x2 = 0 | 707
10230 kPa, x2 = 0.09303 | 709.9
10230 kPa, x2 = 0.2009 | 713.7
10230 kPa, x2 = 0.3051 | 717.8
10230 kPa, x2 = 0.417 | 722.5
10230 kPa, x2 = 0.512 | 727
10230 kPa, x2 = 0.5996 | 731.9
10230 kPa, x2 = 0.7052 | 738.5
10230 kPa, x2 = 0.7993 | 745.4
10230 kPa, x2 = 0.9039 | 754.2
11250 kPa, x2 = 0 | 707.8
11250 kPa, x2 = 0.09303 | 710.7
11250 kPa, x2 = 0.2009 | 714.5
11250 kPa, x2 = 0.3051 | 718.6
11250 kPa, x2 = 0.417 | 723.3
11250 kPa, x2 = 0.512 | 727.9
11250 kPa, x2 = 0.5996 | 732.8
11250 kPa, x2 = 0.7052 | 739.4
11250 kPa, x2 = 0.7993 | 746.3
11250 kPa, x2 = 0.9039 | 755.1
12260 kPa, x2 = 0 | 708.6
12260 kPa, x2 = 0.09303 | 711.6
12260 kPa, x2 = 0.2009 | 715.4
12260 kPa, x2 = 0.3051 | 719.5
12260 kPa, x2 = 0.417 | 724.2
12260 kPa, x2 = 0.512 | 728.8
12260 kPa, x2 = 0.5996 | 733.7
12260 kPa, x2 = 0.7052 | 740.3
12260 kPa, x2 = 0.7993 | 747.1
12260 kPa, x2 = 0.9039 | 756
14290 kPa, x2 = 0 | 710.3
14290 kPa, x2 = 0.09303 | 713.2
14290 kPa, x2 = 0.2009 | 717
14290 kPa, x2 = 0.3051 | 721.1
14290 kPa, x2 = 0.417 | 725.8
14290 kPa, x2 = 0.512 | 730.4
14290 kPa, x2 = 0.5996 | 735.3
14290 kPa, x2 = 0.7052 | 741.9
14290 kPa, x2 = 0.7993 | 748.9
14290 kPa, x2 = 0.9039 | 757.7
16310 kPa, x2 = 0 | 711.9
16310 kPa, x2 = 0.09303 | 714.8
16310 kPa, x2 = 0.2009 | 718.7
16310 kPa, x2 = 0.3051 | 722.7
16310 kPa, x2 = 0.417 | 727.5
16310 kPa, x2 = 0.512 | 732
16310 kPa, x2 = 0.5996 | 737
16310 kPa, x2 = 0.7052 | 743.6
16310 kPa, x2 = 0.7993 | 750.5
16310 kPa, x2 = 0.9039 | 759.4
18340 kPa, x2 = 0 | 713.5
18340 kPa, x2 = 0.09303 | 716.4
18340 kPa, x2 = 0.2009 | 720.2
18340 kPa, x2 = 0.3051 | 724.3
18340 kPa, x2 = 0.417 | 729.1
18340 kPa, x2 = 0.512 | 733.6
18340 kPa, x2 = 0.5996 | 738.6
